Measurements from patent US20210038668A1, “TRADITIONAL CHINESE MEDICINE COMPOSITION FOR PREVENTING AND/OR TREATING ISCHEMIC REPERFUSION INJURY” (TASLY PHARMACEUTICAL GROUP CO., LTD., priority 2018, published 2021).

What was measured:
[1] = system: Claudin-5; experiment: Western blotting of Claudin-5, endothelial cells after hypoxia/reoxygenation; format: cell-based; conditions: rat brain endothelial cells, hypoxia 4.5 h/reoxygenation 3 h; tPA 20 mcg/ml alone (model group); T541 400 mcg/ml + tPA 20 mcg/ml
Source text: Establishment of rat brain endothelial cell H/R model: rat brain endothelial cells were purchased from ATCC, and then subcultured to 5-6 generations in normal conditions for further experiment. […]

[2] = system: MDA; experiment: ELISA of MDA in brain tissue; format: in vivo, C57BL/6 mice; conditions: brain tissue 24 hours after administration; tPA 10 mg/kg alone or + T541 20 mg/kg or ingredients at Table 7 doses
Source text: (§1) To compare the therapeutical effect on reperfusion injury caused by tPA thrombolysis between the traditional Chinese medicinal composition of the present invention and each ingredient (total saponins of Astragalus, the experiment was divided into the following group (tPA is combined with T541, individual ingredient thereof and compatibility of any two ingredients) specifically as follows: tPA+total saponins of Astragalus (tPA+HQ), tPA+ salvianolic acids (tPA+DS), tPA+Panax notoginseng saponins (tPA+SQ), tPA+ total saponins of Astragalus+salvianolic acids (tPA+HQ+DS), tPA+ total saponins of Astragalus+Panax notoginseng saponins (tPA+HQ+SQ), tPA+ salvianolic acids+Panax notoginseng saponins (tPA+DS+SQ) and tPA+T541. Normal saline served as an isovolumetric control. The usage number in each group is 6.
(§2) ELISA adsorption kit was used to measure the change on the content of MDA, 8-hydroxyl-2′-deoxyguanosine (8-OHdG), adenosine triphosphate (ATP), adenosine diphosphate (ADP) and adenosine monophosphate (AMP) in the penumbra field of brain tissue cortex of the mode, and the change on the activity of mitochondrial complexes I, II, IV and V. 6 samples were used to repeat the independent experiment for at least three times for each group of data.

[3] = system: 8-OHdG; experiment: ELISA of 8-OHdG in brain tissue; format: in vivo, C57BL/6 mice; conditions: brain tissue 24 hours after administration; tPA 10 mg/kg alone or + T541 20 mg/kg or ingredients at Table 7 doses
Source text: as §1, §2

[4] = system: mice with carotid artery thrombus; experiment: 18-Score Modified Neurological Severity Score, mice; format: in vivo, C57BL/6 mice
Protocol: Neurological scoring was conducted to each group of […] after reperfused for 3 hours and 24 hours based upon scoring standards (18 scores), as shown in table 2:
Another scoring method is introduced hereafter. Modified neurological severity scores, mNSS, the score is within the range of 0-18. The scoring method is referring to 1.4 of Example 1.
18-Score Modified Neurological Severity Score (normal mice=0; the higher the score is, the more severe the nerve injury is), and a 15-score standard (normal mice=15, dead mice=0) are applied.

[5] = system: mitochondrial complex II; experiment: Mitochondrial complex II activity in brain tissue; format: in vivo, C57BL/6 mice; conditions: brain tissue 24 hours after administration; tPA 10 mg/kg alone or + T541 20 mg/kg or ingredients at Table 7 doses
Source text: as §1, §2

[6] = system: ZO-1; experiment: Western blotting of ZO-1, cortex of ischemic penumbra; format: in vivo, C57BL/6 mice; conditions: brain tissue 24 hours after administration, sham = 1.00; tPA 10 mg/kg alone; T541 20 mg/kg + tPA 10 mg/kg
Protocol: After reperfused for 24 hours, mice were perfused by normal saline; Western blotting analysis was conducted to the penumbra field of infarcted right cerebral cortex. After perfused, mice brain tissue was taken out; cerebellum and prefrontal lobe were cut off; the brain tissue of right brain close to 1 cm of the central joint of left and right hemispheres along the sagittal view; infarcted penumbra field of the rest tissues was cut off along an 45° angle; the cerebral cortex of the penumbra field was peeled off and preserved at low temperature. Right cerebral cortex was taken and added 1×RIPA lysate and a Cocktail protease inhibitor (1:100, Cell Signaling Technology, US) for full pyrolysis and ultrasonic treatment, and then 17000 g were centrifuged for 30 minutes. Supernatant was taken and added 5×loading buffer by volume, boiled for 20 minutes in boiling water, and then preserved at −80° C. Excessive supernatant was taken out and quantified by a BCA protein quantification liquor (ThermoScientific, US) to measure absorbance value at 560 nm of ELIASA and to calculate the protein concentration according to a standard curve. […] The density of electrophoretic strips was analyzed by an image analysis software Quantityone. […]

In the case of “tPA: tissue-type plasminogen activator (tPA) for thrombolysis”, the Claudin-5/β-actin [1] is reported as 0.40 ± 0.06, the MDA [2] is reported as 30.08 ± 2.90 and the 8-OHdG [3] is reported as 1.84 ± 0.11. For the same substance, the “18-Score Modified Neurological Severity Score” value ([4]; 24 hours after administration, normal = 0, tPA 10 mg/kg alone, T541 20 mg/kg, T141 12 mg/kg, T582 15 mg/kg each + tPA 10 mg/kg) was 7.45 ± 0.73, the “neurological scoring 24 hours after administration (in words)” value ([4]; tPA alone, low/medium/high-dose T541 + tPA) was “may not improve the neurological scoring” and the “Complex II activity” value [5] was 0.025 ± 0.005. The ZO-1/β-actin [6] was 0.42 ± 0.05.
